The results in this text go back to ChEMBL document CHEMBL1201862, “PubChem BioAssay data set” (2004).

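Following 48 hours of exposure in 96-well plates, responses at five concentrations were used to interpolate endpoints linearly. GI50 marks 50% less growth.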 Calls of active or inactive are those of the source. Rule as the data show it: active = GI50 up to about 1.1 µM and inactive = higher. A value given as a limit tells only on which side of the number the result lay.

Common to all, as to experiment: growth of human tumour cells (NCI), 48 h
The test system of test [1] is CAKI-1.
Test [2] relates to DU-145.
Test [3] relates to HCT-15.
Test [4] relates to HL-60.
For test [5], the system named is K562.
Test [6] deals with KM12.
Test [7] concerns MCF7.
For test [8], the system named is MDA-MB-231.
Test [9] has as its system MDA-N.
Test [10] has as its system NCI-H23.
Test [11] concerns NCI-H522.
The subject of test [12] is NCI/ADR-RES.
The test system of test [13] is OVCAR-4.
For test [14], the system named is OVCAR-5.
Test [15] concerns RXF 393.
The test system of test [16] is SF-268.
The test system of test [17] is SK-MEL-28.
The subject of test [18] is SK-OV-3.
The test system of test [19] is U-251.
For test [20], the system named is UO-31.

Consider `COC(=O)c1c(C)cccc1C1CN=NC12Cc1cc(C)cc(C)c1C2=O` (stereo not given), for which the GI50 in [1] is 24.9 µM (inactive); in test [2] it was 84.7 µM (inactive); in test [3], 30.5 µM; in [4], 20 µM (inactive); in [5], 30.2 µM (inactive); in [6] it was 31.4 µM (inactive). Further, the GI50 was 6.85 µM (inactive) in [7]; 12.4 µM (inactive) in test [8]; 37.6 µM (inactive) in test [9]; 20.7 µM (inactive) in [10]; 9.46 µM (inactive) in test [11]; 25.2 µM (inactive) in test [12]. For the same compound, the GI50 is 29.2 µM (inactive) in [13]; 48 µM (inactive) in test [14]; 34 µM (inactive) in test [15]; 52.2 µM (inactive) in test [16]; 76.4 µM (inactive) in test [17]; 38.5 µM (inactive) in [18]. The GI50 in [19] was 44.7 µM (inactive); in test [20], 28.4 µM (inactive).
Consider `COC1/C=C\C=C(/C)C(=O)NC2=CC(=O)C(NCCCl)=C(CC(C)CC(OC)C(O)C(C)/C=C(/C)C1OC(N)=O)C2=O` (stereo not given), for which the GI50 in [1] was 0.33 µM (active); in test [2] it was 0.569 µM (active); in [3], 0.301 µM; in test [4], 0.0281 µM (active); in test [5] it was 0.0236 µM (active); in test [6], 0.125 µM (active). Moreover, the GI50 is 0.0333 µM (active) in test [7]; 2 µM (inactive) in test [8]; 0.332 µM (active) in test [9]; 0.0715 µM (active) in [10]; 0.0219 µM (active) in test [11]; 10.6 µM (inactive) in test [12]. Besides, the GI50 is 2.54 µM (inactive) in [13]; 0.594 µM (active) in test [14]; 0.0174 µM (active) in [15]; 0.351 µM (active) in [16]; 0.0373 µM (active) in test [17]; 0.117 µM (active) in test [18]. In addition, the GI50 was 0.11 µM (active) in test [19] and 0.728 µM (active) in test [20].
Regarding `NNc1ncc2c(n1)-c1ccccc1OC2`, the GI50 in test [1] is > 100 µM (inactive); in test [2], 61 µM (inactive); in [3] it was 29.9 µM; in test [4], 19.7 µM (inactive); in [5], 50.9 µM (inactive); in test [6], 54.1 µM (inactive). Besides, the GI50 in test [7] was 50.1 µM (inactive); in test [8] it was > 100 µM (inactive); in test [9], > 100 µM (inactive); in test [10], > 100 µM (inactive); in test [11] it was 46.5 µM (inactive); in [12], 28 µM (inactive). In addition, the GI50 in [13] is 67.1 µM (inactive); in [14] it was > 100 µM (inactive); in [15], > 100 µM (inactive); in test [16] it was 41.6 µM (inactive); in [17], > 100 µM (inactive); in test [18], 57.1 µM (inactive). In addition, the results for the GI50 in test [19] and in test [20] were 54.2 µM (inactive) and 41.1 µM (inactive), respectively.
Regarding `COCOc1cc(OC)ccc1C=O`, the GI50 was 86.9 µM (inactive) in test [1]; 53.3 µM (inactive) in [2]; 36.4 µM in [3]; 26.7 µM (inactive) in test [4]; 23.9 µM (inactive) in [5]; 34 µM (inactive) in test [6]. The GI50 in [7] is 24.5 µM (inactive); in test [8] it was 51.3 µM (inactive); in [9], 5.58 µM (inactive); in test [10], 35.6 µM (inactive); in test [11] it was 27.6 µM (inactive); in test [12] it was 17.3 µM (inactive). Moreover, the GI50 in test [13] was 78 µM (inactive); in [14], > 100 µM (inactive); in test [15], 14.7 µM (inactive); in test [16] it was 64.9 µM (inactive); in [17], > 100 µM (inactive); in test [18], 62.4 µM (inactive). Besides, the figures for the GI50 in [19] and in test [20] were 30 µM (inactive) and 64 µM (inactive), respectively.
Regarding `CC(C)(C)N1Cc2ccccc2/C(=C/Sc2ccccc2)C1=O`, the GI50 in test [1] was 16.6 µM (inactive); in test [2], 16.9 µM (inactive); in test [3], 12.9 µM; in [4] it was 13.5 µM (inactive); in test [5], 5.85 µM (inactive); in test [6], 17 µM (inactive). Also, the GI50 in test [7] is 7.19 µM (inactive); in test [8], 16.5 µM (inactive); in test [9], 6.55 µM (inactive); in [10], 6.84 µM (inactive); in [11] it was 2.75 µM (inactive); in [12], 14.1 µM (inactive). In addition, the GI50 in test [13] is 7.01 µM (inactive); in [14], 19.4 µM (inactive); in test [15], 16.2 µM (inactive); in test [16], 2.44 µM (inactive); in test [17], 17.5 µM (inactive); in [18] it was 17.4 µM (inactive). Further, the GI50 was 13.6 µM (inactive) in test [19] and 12.3 µM (inactive) in [20].
Consider `COCC(/N=C\N1CCCc2ccccc2[C@@H]1CCCCl)C(C)(C)C` (stereo not given in full), for which the GI50 in [1] was 1.58 µM (inactive); in test [2], > 100 µM (inactive); in [3] it was 41.9 µM; in test [4] it was 0.619 µM (active); in [5], 0.512 µM (active); in test [6] it was 4.24 µM (inactive). In addition, the GI50 is 0.351 µM (active) in test [7]; 3.49 µM (inactive) in test [8]; 33.8 µM (inactive) in [9]; 0.421 µM (active) in [10]; 0.557 µM (active) in [11]; 0.392 µM (active) in test [12]. Moreover, the GI50 in test [13] was 1.97 µM (inactive); in test [14], 13.6 µM (inactive); in test [15], 13.1 µM (inactive); in test [16], > 100 µM (inactive); in test [17] it was > 100 µM (inactive); in test [18], 14.6 µM (inactive). Also, the GI50 is 6.89 µM (inactive) in test [19] and 12.2 µM (inactive) in test [20].
With `Nc1ncnc2c1ncn2C1OC(CO)C2OC21` (stereo not given), the GI50 in test [1] is > 100 µM (inactive); in [2], > 100 µM (inactive); in [3], above 10 µM; in test [4], > 100 µM (inactive); in test [5], 72.8 µM (inactive); in [6], > 100 µM (inactive). The GI50 in test [7] is > 100 µM (inactive); in test [8] it was > 100 µM (inactive); in test [9] it was > 10 µM (inactive); in [10] it was > 100 µM (inactive); in test [11] it was > 100 µM (inactive); in test [12], > 10 µM (inactive). The GI50 in [13], in [14], in test [15], in [16], in test [17] and in [18] was > 100 µM (inactive) each time. Also, the GI50 in [19] and in test [20] was > 100 µM (inactive) each time.
